Literature values as cited in US10059717B2, “Urea compounds containing 3,4-dihydropyrimido[4,5-D]pyrimidin-2(1H)-one skeleton as protein kinase inhibitors” (KOREA INSTITUTE OF SCIENCE AND TECHNOLOGY, priority 2016, dated 2018).

How the values were obtained:
[1] = test system: preclinical leukemia models; conditions: cited from earlier work
[2] = test system: cell samples from AML patients with actual NRAS mutants; conditions: cited from earlier work

Cc1ccc(Nc2ncc3c(n2)N(C)C(=O)N(c2cc(NC(=O)c4cccc(C(F)(F)F)c4)ccc2C)C3)cn1 [GNF 7]
inhibitory effects in preclinical leukemia models [1]: inhibitory effects in preclinical leukemia models have been observed | efficacy in cell samples from AML patients [2]: exhibited its efficacy
